Assay results reported in PMC3377626, “Role of mprF1 and mprF2 in the Pathogenicity of Enterococcus faecalis” (PLoS ONE, 2012).
Converted amounts (≈) assume the structure as drawn. No end group written: not given here.

Experiments:
[1] = test system: S. aureus; conditions: S. aureus MprF mutant versus wild type; cited from earlier work
Description: In contrast to S. aureus, however, there was no effect on ...

[2] = test system: E. faecalis 12030 ΔmprF2 CM; assay: MIC by serial dilution (modified NCCLS method); type: cell-based, Enterococcus faecalis; conditions: mprF2 mutant complemented by knock-in of mprF2; serial dilution in TSB broth, 96-well plates, approx. 1×10^6 CFU/ml, overnight at 37°C; lowest concentration at which visible growth was inhibited
Experimental: (§1) The minimal inhibitory concentration (MIC) of polymyxin B, nisin, HBD-3, and colistin was determined in serial dilution with a modified NCCLS method. Experiments were performed in TSB broth in 96-well microtiter tissue culture plates (Greiner). Wells were inoculated with 50-µl volumes of a suspension containing approximately 1×10^6 CFU/ml of the test organism, and concentrations were confirmed by enumeration of CFUs after serial dilution. Microtiter plates were incubated overnight at 37°C, and the MICs were defined as the lowest concentration at which visible growth was inhibited. The MIC against daptomycin was determined by E-test according to standard laboratory procedures.

[3] = test system: E. faecalis 12030; assay: MIC by serial dilution (modified NCCLS method); type: cell-based, Enterococcus faecalis; conditions: wild type strain; serial dilution in TSB broth, 96-well plates, approx. 1×10^6 CFU/ml, overnight at 37°C; lowest concentration at which visible growth was inhibited
Experimental: as §1

[4] = test system: E. faecalis 12030 ΔmprF1; assay: MIC by serial dilution (modified NCCLS method); type: cell-based, Enterococcus faecalis; conditions: mprF1 (EF_0031) deletion mutant; serial dilution in TSB broth, 96-well plates, approx. 1×10^6 CFU/ml, overnight at 37°C; lowest concentration at which visible growth was inhibited
Experimental: as §1

[5] = test system: E. faecalis 12030 ΔmprF2; assay: MIC by serial dilution (modified NCCLS method); type: cell-based, Enterococcus faecalis; conditions: for Minimal inhibotory concentration: mprF2 (EF_1027) deletion mutant, serial dilution in TSB broth, 96-well plates, approx. 1×10^6 CFU/ml, overnight at 37°C, lowest concentration at which visible growth was inhibited; for fold decreased MIC of 12030ΔmprF2 compared to the wild-type strain: ratio of MIC of wild type E. faecalis 12030 to MIC of 12030ΔmprF2, from Table 1
Experimental: as §1

[6] = test system: E. faecalis 12030; assay: MIC by E-test; type: cell-based, Enterococcus faecalis; conditions: wild-type strain
Experimental: as §1

[7] = test system: 12030ΔmprF2 CM (knock-in); assay: MIC by E-test; type: cell-based, Enterococcus faecalis; conditions: mprF2 mutant complemented by knock-in
Experimental: as §1

[8] = test system: 12030ΔmprF1; assay: MIC by E-test; type: cell-based, Enterococcus faecalis; conditions: mprF1 deletion mutant
Experimental: as §1

[9] = test system: 12030ΔmprF2; assay: MIC by E-test; type: cell-based, Enterococcus faecalis; conditions: mprF2 deletion mutant
Experimental: as §1

Compound	fold drop of the MIC on mutation of MprF in S. aureus [1] [fold]	Minimal inhibotory concentration [2] [µg/mL]	Minimal inhibotory concentration [3] [µg/mL]	Minimal inhibotory concentration [4] [µg/mL]	Minimal inhibotory concentration [5] [µg/mL]	fold decreased MIC of 12030ΔmprF2 compared to the wild-type strain [5] [fold]	MIC [6] [µg/mL]	MIC [7] [µg/mL]	MIC [8] [µg/mL]	MIC [9] [µg/mL]
nisin (ITSISLCTPGCKTGALMGCNMKTATCHCSIHVSK; cysteine pairing not given here; also: lantibiotic nisin-A, lanthionine/dehydro residues not placed; UniProt P13068 24-57, looked up) [cationic antimicrobial peptide (CAMP)]	28	4	4	4	1	4				
polymyxin B			1024		256	4				
CCCCCCCCCC(=O)N[C@@H](Cc1c[nH]c2ccccc12)C(=O)N[C@H](CC(N)=O)C(=O)N[C@@H](CC(=O)O)C(=O)N[C@@H]1C(=O)NCC(=O)N[C@@H](CCCN)C(=O)N[C@@H](CC(=O)O)C(=O)N[C@H](C)C(=O)N[C@@H](CC(=O)O)C(=O)NCC(=O)N[C@H](CO)C(=O)N[C@@H]([C@H](C)CC(=O)O)C(=O)N[C@@H](CC(=O)c2ccccc2N)C(=O)O[C@@H]1C [daptomycin]							0.19 (≈ 0.117 µM)	0.25 (≈ 0.154 µM)	0.25 (≈ 0.154 µM)	0.25 (≈ 0.154 µM)
colistin			4096		2048	2				
HBD-3: cationic antimicrobial peptide (CAMP) (GIINTLQKYYCRVRGGRCAVLSCLPKEEQIGKCSTRGRKCCRRKK; ends and bridges not checked; cysteine pairing not given here; UniProt P81534 23-67, looked up)			>512		128	> 4				
